Test results taken from patent US4606908A, “Methods and compositions for plasma and organ imaging” (Washington Research Foundation, priority 1983, dated 1986).

Test system: isolated rabbit hearts
Test: extraction and retention of tracer in isolated perfused rabbit hearts (indicator dilution, coronary sinus outflow)
Design: species or system New Zealand white rabbits
Conditions: isolated rabbit heart
Protocol: For isolated heart studies, after anesthesia with pentobarbital, the hearts were removed from 2 to 3 kg New Zealand white rabbits and mounted on a perfusion system in which the flow was controlled and the perfusion pressure monitored. The perfusate was (mM): Na 142, K 5.4, Mg 1.0, Ca 2.0, Cl 141, HCO3 12, PO4 0.435, glucose 11.0, and insulin 2 units/L, at 37° C. The coronary sinus flow and Thebesian flow into the right ventricle were collected via cannula placed through the pulmonary artery and a total effluent flow measured with graduated cylinder and stopwatch. Reference and test tracers were simultaneously injected as a mixed bolus into the aortic cannula, which supplied only the coronary system. Samples of the coronary sinus effluent were taken from the cannulated pulmonary artery at intervals of 1, 2, 4 or 10 seconds; higher sampling rates were used during the first part of the curves. The outflow of response was calculated as the fraction of dose emerging per unit time, h(t), at each time t:
F is the perfusate flow ml×s^-1 ;
C(t) is the concentration of tracer, cpm/ml; and
q0 is the injected dose of tracer, cpm.

CNCCCN1c2ccccc2CCc2ccc([125I])cc21 [^125 I-DMI]
retentions at 10-20 min (10-20 min): about 80% | maximal instantaneous extractions (37° C., plasma flows up to 1.5 ml/min×g): 96% | Overall retentions at 1 min (1 min, minimum value, indicator possibly impure): about 91%
